ChEMBL document CHEMBL4507269, “Data for DCP probe BAY-386” (2021)

Assays:
[1] = target: Interferon-induced, double-stranded RNA-activated protein kinase (Homo sapiens) (UniProt P19525); conditions: Compound concentration 1000.0 nM
[2] = tested on: Phosphatidylinositol 4,5-bisphosphate 3-kinase catalytic subunit alpha isoform (Homo sapiens), P42336 [E545K]; conditions: Compound concentration 1000.0 nM
[3] = target: Serine/threonine-protein kinase PAK 4 (Homo sapiens) (UniProt O96013); conditions: Compound concentration 1000.0 nM
[4] = target: Mitogen-activated protein kinase 13 (Homo sapiens) (UniProt O15264); conditions: Compound concentration 1000.0 nM
[5] = target: Mitogen-activated protein kinase 6 (Homo sapiens) (UniProt Q16659); conditions: Compound concentration 1000.0 nM
[6] = target: Protein kinase C iota type (Homo sapiens) (UniProt P41743); conditions: Compound concentration 1000.0 nM
[7] = target: Mitogen-activated protein kinase kinase kinase 11 (Homo sapiens) (UniProt Q16584); conditions: Compound concentration 1000.0 nM
[8] = target: T1, 5-hydroxytryptamine receptor 1A (Homo sapiens) (UniProt P08908); experiment: 5-HT1A (h) Eurofins-Cerep Cellular and Nuclear Receptor Functional Assays; conditions: Compound concentration 10.0 uM
T1 sequence (whole entry): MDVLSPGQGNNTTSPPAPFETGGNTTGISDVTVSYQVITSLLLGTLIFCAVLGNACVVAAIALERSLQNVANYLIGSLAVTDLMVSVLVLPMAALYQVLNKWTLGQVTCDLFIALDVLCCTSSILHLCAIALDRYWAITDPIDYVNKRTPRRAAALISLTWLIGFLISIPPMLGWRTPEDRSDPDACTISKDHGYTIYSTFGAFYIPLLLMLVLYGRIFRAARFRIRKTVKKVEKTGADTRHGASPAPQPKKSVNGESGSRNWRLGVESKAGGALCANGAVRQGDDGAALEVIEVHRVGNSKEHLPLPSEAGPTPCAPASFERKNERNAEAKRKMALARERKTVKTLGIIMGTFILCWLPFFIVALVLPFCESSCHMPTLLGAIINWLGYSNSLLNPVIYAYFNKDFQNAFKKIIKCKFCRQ

[9] = target: G protein-coupled receptor kinase 4 (Homo sapiens) (UniProt P32298); conditions: Compound concentration 1000.0 nM
[10] = target: Discoidin domain-containing receptor 2 (Homo sapiens) (UniProt Q16832); conditions: Compound concentration 1000.0 nM
[11] = target: Tyrosine-protein kinase Tec (Homo sapiens) (UniProt P42680); conditions: Compound concentration 1000.0 nM
[12] = target: Cyclin-G-associated kinase (Homo sapiens) (UniProt O14976); conditions: Compound concentration 1000.0 nM
[13] = target: Serine/threonine-protein kinase pim-3 (Homo sapiens) (UniProt Q86V86); conditions: Compound concentration 1000.0 nM
[14] = target: Dual specificity protein kinase CLK1 (Homo sapiens) (UniProt P49759); conditions: Compound concentration 1000.0 nM
[15] = target: Serine/threonine-protein kinase tousled-like 2 (Homo sapiens) (UniProt Q86UE8); conditions: Compound concentration 1000.0 nM
[16] = tested on: Epidermal growth factor receptor (Homo sapiens), P00533 [L858R]; conditions: Compound concentration 1000.0 nM
[17] = target: Membrane-associated tyrosine- and threonine-specific cdc2-inhibitory kinase (Homo sapiens) (UniProt Q99640); conditions: Compound concentration 1000.0 nM
[18] = target: Mitogen-activated protein kinase kinase kinase 12 (Homo sapiens) (UniProt Q12852); conditions: Compound concentration 1000.0 nM
[19] = target: Ephrin type-B receptor 3 (Homo sapiens) (UniProt P54753); conditions: Compound concentration 1000.0 nM
[20] = target: Phosphatidylinositol 4-phosphate 5-kinase type-1 alpha (Homo sapiens) (UniProt Q99755); conditions: Compound concentration 1000.0 nM
[21] = target: Serine/threonine-protein kinase TAO3 (Homo sapiens) (UniProt Q9H2K8); conditions: Compound concentration 1000.0 nM
[22] = target: LIM domain kinase 1 (Homo sapiens) (UniProt P53667); conditions: Compound concentration 1000.0 nM
[23] = target: Serine/threonine-protein kinase Nek6 (Homo sapiens) (UniProt Q9HC98); conditions: Compound concentration 1000.0 nM
[24] = target: Mitogen-activated protein kinase kinase kinase 7 (Homo sapiens) (UniProt O43318); conditions: Compound concentration 1000.0 nM
[25] = target: Serine/threonine-protein kinase Sgk2 (Homo sapiens) (UniProt Q9HBY8); conditions: Compound concentration 1000.0 nM
[26] = target: Serine/threonine-protein kinase OSR1 (Homo sapiens) (UniProt O95747); conditions: Compound concentration 1000.0 nM
[27] = target: Ephrin type-A receptor 3 (Homo sapiens) (UniProt P29320); conditions: Compound concentration 1000.0 nM
[28] = target: Serine/threonine-protein kinase/endoribonuclease IRE1 (Homo sapiens) (UniProt O75460); conditions: Compound concentration 1000.0 nM
[29] = target: Serine/threonine-protein kinase Sgk3 (Homo sapiens) (UniProt Q96BR1); conditions: Compound concentration 1000.0 nM
[30] = target: T2, Alpha-1D adrenergic receptor (Homo sapiens) (UniProt P25100); conditions: Compound concentration 10.0 uM
T2 sequence (whole entry): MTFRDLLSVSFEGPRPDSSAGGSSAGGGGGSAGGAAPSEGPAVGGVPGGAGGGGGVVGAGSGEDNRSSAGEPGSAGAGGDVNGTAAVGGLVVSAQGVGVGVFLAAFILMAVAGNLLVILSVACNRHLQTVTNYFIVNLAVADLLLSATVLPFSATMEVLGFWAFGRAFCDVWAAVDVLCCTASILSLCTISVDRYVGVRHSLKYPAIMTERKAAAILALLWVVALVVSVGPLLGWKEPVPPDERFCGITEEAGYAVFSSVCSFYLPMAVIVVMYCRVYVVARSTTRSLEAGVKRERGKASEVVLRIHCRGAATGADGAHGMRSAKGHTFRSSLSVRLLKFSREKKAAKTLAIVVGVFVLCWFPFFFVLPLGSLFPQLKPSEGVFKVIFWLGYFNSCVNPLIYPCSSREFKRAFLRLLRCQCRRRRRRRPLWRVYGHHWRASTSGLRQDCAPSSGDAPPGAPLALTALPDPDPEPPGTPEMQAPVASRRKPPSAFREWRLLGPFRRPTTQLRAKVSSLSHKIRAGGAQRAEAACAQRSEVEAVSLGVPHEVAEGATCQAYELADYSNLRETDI

[31] = target: Myosin-IIIb (Homo sapiens) (UniProt Q8WXR4); conditions: Compound concentration 1000.0 nM

Sequence of Phosphatidylinositol 4-phosphate 5-kinase type-1 alpha (Homo sapiens) (Q99755 whole entry): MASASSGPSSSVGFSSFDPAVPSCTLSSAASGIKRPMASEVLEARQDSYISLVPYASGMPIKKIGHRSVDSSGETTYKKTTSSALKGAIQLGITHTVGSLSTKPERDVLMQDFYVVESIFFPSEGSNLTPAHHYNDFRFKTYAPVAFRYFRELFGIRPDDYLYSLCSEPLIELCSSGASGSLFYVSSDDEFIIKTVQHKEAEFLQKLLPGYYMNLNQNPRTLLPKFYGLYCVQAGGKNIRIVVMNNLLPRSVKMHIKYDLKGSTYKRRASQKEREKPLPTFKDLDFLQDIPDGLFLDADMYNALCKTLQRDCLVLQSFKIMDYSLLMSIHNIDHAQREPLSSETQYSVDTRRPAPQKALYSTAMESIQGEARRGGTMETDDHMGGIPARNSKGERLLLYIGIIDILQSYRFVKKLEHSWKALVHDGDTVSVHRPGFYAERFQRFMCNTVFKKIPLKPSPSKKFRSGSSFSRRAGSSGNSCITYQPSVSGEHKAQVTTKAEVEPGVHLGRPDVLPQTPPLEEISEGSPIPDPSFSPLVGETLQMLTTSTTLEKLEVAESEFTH
Sequence of Serine/threonine-protein kinase TAO3 (Homo sapiens) (Q9H2K8 whole entry, the tested form may be a part): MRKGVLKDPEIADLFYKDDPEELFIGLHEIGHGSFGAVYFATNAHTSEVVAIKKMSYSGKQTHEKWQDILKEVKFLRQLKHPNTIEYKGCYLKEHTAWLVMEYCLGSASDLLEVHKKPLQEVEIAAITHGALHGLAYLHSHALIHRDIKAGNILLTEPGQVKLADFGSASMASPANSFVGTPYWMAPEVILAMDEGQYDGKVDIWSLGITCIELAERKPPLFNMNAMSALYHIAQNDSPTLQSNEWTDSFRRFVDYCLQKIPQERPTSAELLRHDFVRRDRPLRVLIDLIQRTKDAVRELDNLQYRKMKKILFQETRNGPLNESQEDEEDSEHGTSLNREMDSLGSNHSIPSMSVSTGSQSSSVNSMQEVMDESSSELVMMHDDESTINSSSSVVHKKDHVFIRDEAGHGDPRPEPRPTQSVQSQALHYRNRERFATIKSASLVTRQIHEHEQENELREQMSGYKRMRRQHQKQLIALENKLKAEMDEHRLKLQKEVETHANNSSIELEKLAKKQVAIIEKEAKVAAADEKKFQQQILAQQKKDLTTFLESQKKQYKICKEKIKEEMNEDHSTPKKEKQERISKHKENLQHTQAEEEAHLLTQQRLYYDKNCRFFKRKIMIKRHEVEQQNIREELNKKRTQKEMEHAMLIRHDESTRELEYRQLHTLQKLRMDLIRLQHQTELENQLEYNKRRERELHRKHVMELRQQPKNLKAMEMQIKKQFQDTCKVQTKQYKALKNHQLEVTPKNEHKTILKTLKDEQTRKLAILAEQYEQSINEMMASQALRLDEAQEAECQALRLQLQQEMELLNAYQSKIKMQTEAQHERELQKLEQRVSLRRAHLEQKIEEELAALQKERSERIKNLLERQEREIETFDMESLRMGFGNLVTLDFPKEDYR
Sequence of Serine/threonine-protein kinase/endoribonuclease IRE1 (Homo sapiens) (O75460 19-977 limits assumed): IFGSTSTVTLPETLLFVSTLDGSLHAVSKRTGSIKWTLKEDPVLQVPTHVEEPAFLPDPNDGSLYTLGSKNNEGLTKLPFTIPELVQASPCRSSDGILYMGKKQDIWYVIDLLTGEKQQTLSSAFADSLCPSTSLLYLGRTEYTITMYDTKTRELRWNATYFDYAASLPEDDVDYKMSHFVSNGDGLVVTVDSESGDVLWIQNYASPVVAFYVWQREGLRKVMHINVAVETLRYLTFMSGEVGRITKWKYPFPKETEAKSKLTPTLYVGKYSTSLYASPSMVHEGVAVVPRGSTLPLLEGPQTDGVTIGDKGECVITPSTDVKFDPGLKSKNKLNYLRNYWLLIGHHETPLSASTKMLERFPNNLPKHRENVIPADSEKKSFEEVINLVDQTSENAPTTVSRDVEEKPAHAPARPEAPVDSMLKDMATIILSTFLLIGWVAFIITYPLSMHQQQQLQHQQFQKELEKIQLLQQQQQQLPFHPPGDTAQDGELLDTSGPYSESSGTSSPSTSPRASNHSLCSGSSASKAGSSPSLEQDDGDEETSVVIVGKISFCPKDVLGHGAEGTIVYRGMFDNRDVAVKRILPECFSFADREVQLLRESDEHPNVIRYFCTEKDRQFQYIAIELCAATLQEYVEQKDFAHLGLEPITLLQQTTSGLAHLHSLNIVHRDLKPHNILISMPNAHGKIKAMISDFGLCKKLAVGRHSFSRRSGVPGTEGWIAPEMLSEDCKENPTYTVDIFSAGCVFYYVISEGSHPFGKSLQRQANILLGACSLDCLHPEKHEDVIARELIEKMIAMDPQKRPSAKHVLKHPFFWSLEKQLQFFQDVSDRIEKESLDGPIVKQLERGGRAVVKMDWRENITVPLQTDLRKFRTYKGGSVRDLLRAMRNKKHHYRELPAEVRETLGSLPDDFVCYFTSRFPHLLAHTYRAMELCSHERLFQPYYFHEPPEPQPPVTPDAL
Sequence of Serine/threonine-protein kinase tousled-like 2 (Homo sapiens) (Q86UE8 whole entry, looked up): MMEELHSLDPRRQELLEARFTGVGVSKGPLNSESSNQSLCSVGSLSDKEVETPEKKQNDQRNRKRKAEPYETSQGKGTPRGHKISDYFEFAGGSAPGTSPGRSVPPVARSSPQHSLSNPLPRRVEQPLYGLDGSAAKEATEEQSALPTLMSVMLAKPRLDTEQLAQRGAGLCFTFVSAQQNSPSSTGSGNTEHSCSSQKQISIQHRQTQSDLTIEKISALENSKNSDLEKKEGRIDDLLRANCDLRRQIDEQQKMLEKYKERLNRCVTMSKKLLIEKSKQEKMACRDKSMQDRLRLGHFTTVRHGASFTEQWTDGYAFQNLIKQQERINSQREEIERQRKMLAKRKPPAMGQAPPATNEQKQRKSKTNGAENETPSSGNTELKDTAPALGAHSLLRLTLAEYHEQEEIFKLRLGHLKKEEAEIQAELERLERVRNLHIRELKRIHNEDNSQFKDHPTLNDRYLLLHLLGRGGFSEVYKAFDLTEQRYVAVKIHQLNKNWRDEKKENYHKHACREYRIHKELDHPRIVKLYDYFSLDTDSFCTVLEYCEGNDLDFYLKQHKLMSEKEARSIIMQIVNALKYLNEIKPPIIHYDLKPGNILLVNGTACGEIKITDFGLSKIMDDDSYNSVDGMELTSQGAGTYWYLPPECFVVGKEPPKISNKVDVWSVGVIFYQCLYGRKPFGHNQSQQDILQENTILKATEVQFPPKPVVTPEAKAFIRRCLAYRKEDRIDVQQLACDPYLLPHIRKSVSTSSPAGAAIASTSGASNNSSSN
Sequence of Serine/threonine-protein kinase PAK 4 (Homo sapiens) (O96013 whole entry, looked up): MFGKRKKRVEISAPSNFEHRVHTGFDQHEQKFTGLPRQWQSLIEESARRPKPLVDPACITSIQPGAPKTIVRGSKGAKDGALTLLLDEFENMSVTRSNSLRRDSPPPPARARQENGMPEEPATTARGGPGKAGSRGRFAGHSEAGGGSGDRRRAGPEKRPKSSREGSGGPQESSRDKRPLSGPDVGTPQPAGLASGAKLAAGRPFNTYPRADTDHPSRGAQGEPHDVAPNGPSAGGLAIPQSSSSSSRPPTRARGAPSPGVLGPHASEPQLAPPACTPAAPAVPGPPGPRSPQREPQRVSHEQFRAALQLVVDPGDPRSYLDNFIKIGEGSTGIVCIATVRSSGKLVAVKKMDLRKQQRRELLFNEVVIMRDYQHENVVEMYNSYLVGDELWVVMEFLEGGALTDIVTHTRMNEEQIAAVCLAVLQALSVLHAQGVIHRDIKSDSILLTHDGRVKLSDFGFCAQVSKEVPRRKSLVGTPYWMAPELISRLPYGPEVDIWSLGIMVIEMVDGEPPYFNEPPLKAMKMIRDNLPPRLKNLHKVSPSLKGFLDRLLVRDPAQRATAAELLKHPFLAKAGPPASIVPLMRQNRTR
Sequence of LIM domain kinase 1 (Homo sapiens) (P53667 whole entry, looked up, the tested form may be a part): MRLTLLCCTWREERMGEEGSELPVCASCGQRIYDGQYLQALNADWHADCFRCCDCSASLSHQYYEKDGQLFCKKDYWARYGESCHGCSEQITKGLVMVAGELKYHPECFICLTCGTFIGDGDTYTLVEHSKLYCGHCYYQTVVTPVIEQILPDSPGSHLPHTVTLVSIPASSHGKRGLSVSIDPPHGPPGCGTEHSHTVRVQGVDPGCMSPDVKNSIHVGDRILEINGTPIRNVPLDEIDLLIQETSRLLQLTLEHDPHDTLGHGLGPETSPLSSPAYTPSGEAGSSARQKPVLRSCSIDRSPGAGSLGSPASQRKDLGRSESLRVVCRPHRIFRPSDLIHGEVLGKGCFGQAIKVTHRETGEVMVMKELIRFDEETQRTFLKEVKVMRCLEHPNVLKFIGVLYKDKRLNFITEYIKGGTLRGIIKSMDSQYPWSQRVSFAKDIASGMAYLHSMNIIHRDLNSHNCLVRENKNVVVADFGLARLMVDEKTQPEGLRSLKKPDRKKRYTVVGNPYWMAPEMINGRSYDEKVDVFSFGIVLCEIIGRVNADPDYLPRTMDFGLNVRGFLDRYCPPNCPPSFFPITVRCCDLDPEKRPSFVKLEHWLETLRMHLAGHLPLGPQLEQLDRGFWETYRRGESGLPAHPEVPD

SMILES	residual activity [1] [%]	residual activity [2] [%]	residual activity [3] [%]	residual activity [4] [%]	residual activity [5] [%]	residual activity [6] [%]	residual activity [7] [%]	% Inhibition of Control Agonist Response (Mean n=2) [8] [%]	% of Control Agonist Response (Mean n=2) [8] [%]	residual activity [9] [%]	residual activity [10] [%]	residual activity [11] [%]	residual activity [12] [%]	residual activity [13] [%]	residual activity [14] [%]	residual activity [15] [%]	residual activity [16] [%]	residual activity [17] [%]	residual activity [18] [%]	residual activity [19] [%]	also measured
O=C(N1CCS(=O)(=O)CC1)N1C[C@H](c2ccc(OC(F)(F)F)cc2)C[C@H](c2nc(C3CC3)no2)C1 [BAY-386]	100	90	100	100	100	100	100	25.6	-0.2	100	100	100	100	100	98	100	100	100	0	100	residual activity [20]: 100%; residual activity [21]: 100%; residual activity [22]: 100%; residual activity [23]: 98%; residual activity [24]: 100%; residual activity [25]: 76%; residual activity [26]: 100%; residual activity [27]: 100%; residual activity [28]: 96%; residual activity [29]: 100%; inhibition [30]: 2.45%; residual activity [31]: 89%
Cc1noc([C@H]2C[C@@H](c3ccc(C(F)(F)F)cc3)CN(C(=O)N3CCS(=O)(=O)C3)C2)n1 [BAY-448]	100	65	100	100	100	100	86	-23	1.1	99	74	100	97	91	100	100	100	100	92	100	residual activity [20]: 88%; residual activity [21]: 100%; residual activity [22]: 100%; residual activity [23]: 100%; residual activity [24]: 100%; residual activity [25]: 100%; residual activity [26]: 89%; residual activity [27]: 100%; residual activity [28]: 100%; residual activity [29]: 100%; inhibition [30]: -1.84%; residual activity [31]: 100%
